Test results taken from patent publication US20190234956A1 (priority 2016, published 2019).

Tests used:
[1] = background statement; cited from earlier work
Ms sGC-NT23 [2] = assay: Determination of CO dissociation constants, Ms sGC-NT23; type: binding, Manduca sexta; details: stimulator 5 μM, versus no stimulator
[3] = test system: bacterial H-NOX proteins (Cb SONO, Ns H-NOX, So H-NOX, Sw H-NOX); type: binding
Ms sGC-NT23 [4] = assay: Photoaffinity labeling with IWP-854, western blot, Ms sGC-NT23; type: binding, Manduca sexta
Compound solubility = type: physicochemical
[5] = test system: bacterial H-NOX proteins (Cb SONO, Ns H-NOX, So H-NOX, Sw H-NOX); type: binding; remark: listed apart in the source
Ms sGC-β1 = assay: Photoaffinity labeling with IWP-854, western blot, Ms sGC-β1; type: binding, Manduca sexta
full-length Hs sGC = target: T1, full-length Hs sGC (Homo sapiens, UniProt Q02153); assay: Photoaffinity labeling with IWP-854, western blot, full-length Hs sGC; type: binding; details: IWP-854 1 μM; not competed away with excess stimulator
T1 construct: Full-length human sGC was purchased from Enzo Life Sciences, Inc; purchased Enzo Life Sciences, Inc
T1 sequence (Q02153 1-619): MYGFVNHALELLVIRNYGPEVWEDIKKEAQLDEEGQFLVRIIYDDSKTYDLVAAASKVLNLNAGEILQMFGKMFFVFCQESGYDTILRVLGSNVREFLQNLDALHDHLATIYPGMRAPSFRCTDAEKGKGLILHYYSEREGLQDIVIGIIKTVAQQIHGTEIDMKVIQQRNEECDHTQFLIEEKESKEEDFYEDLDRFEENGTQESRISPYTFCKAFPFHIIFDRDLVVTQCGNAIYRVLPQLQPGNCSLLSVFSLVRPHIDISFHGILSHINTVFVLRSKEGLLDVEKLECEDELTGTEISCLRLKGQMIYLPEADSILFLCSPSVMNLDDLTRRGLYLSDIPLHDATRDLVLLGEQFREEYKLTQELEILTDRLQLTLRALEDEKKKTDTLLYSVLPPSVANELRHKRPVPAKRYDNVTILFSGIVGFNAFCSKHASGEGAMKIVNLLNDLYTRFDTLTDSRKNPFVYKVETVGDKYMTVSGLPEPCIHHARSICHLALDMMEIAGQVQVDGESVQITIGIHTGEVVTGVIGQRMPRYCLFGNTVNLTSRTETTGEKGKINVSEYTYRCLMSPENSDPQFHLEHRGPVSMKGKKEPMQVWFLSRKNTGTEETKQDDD
T1 sequence (Q02108 1-690 partner): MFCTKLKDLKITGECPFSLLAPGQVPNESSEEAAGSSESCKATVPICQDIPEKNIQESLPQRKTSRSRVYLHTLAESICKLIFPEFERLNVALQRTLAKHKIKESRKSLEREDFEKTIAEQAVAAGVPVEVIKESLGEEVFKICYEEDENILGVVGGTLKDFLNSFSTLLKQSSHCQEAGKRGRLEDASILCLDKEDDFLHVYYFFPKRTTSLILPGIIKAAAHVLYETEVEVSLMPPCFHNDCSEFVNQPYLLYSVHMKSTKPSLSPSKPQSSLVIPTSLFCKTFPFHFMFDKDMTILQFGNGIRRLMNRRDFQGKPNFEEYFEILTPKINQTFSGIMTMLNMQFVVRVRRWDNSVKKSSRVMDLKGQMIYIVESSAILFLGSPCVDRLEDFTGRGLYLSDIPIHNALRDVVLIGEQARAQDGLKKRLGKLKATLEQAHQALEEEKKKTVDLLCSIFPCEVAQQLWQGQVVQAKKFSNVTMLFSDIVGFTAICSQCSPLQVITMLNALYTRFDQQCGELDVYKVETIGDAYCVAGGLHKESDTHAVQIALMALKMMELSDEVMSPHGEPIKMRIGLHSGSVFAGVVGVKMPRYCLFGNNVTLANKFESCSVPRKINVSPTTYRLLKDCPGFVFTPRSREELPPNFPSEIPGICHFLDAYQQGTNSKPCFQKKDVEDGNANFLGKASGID

human sGC = target: T2, human sGC (Homo sapiens, UniProt Q02153); assay: cGMP measurement, catalytic activity of human sGC in transfected HEK293T lysate; type: biochemical; details: stimulator 5 μM
T2 construct: Hs SGC-β1 (β1 1-619-His6); expressed in transfected cells; host or cells: HEK293T
T2 sequence (Q02153 1-619): T1 sequence (Q02153 1-619)
T2 sequence (Q02108 1-690 partner): T1 sequence (Q02108 1-690 partner)

| SMILES | solubility compared with traditional stimulators [1] | enhancement of CO affinity (Ms sGC-NT23 [2]) [fold] | enhancement of CO binding [3] | competition of IWP-854 cross-linking (Ms sGC-NT23 [4]; BAY 41-2272 1-25 μM against IWP-854 1 μM) | compound solubility (Compound solubility) | competition of IWP-854 labeling [5] | competition of IWP-854 labeling (Ms sGC-β1; BAY 41-2272 against IWP-854) | labeling of the α1 subunit (full-length Hs sGC) | subunit cross-linked by IWP-854 (Ms sGC-NT23 [4]; IWP-854 1 μM, 15 min UV, anti-biotin western blot) | increase of sGC activity over basal levels (human sGC; absence of added NO) [fold] | stimulation of recombinant human sGC, compared with BAY 41-2272 (human sGC; basal and NO stimulated) | increase of sGC activity over basal (human sGC; upon addition of NO (DEA/NO 100 μM)) [fold] | amount of IWP-854 required for photoaffinity labeling relative to sGC constructs [5] [fold] | labeling of bacterial H-NOX proteins [5] | labeling of the isolated β1 subunit (Ms sGC-β1; β1 residues 1-380) |
| --- | --- | --- | --- | --- | --- | --- | --- | --- | --- | --- | --- | --- | --- | --- | --- |
| O=c1[nH]c(-c2cc(-c3ccon3)n(Cc3ccccc3F)n2)ncc1F [IWP-051] | improved solubility over traditional stimulators | – | – | – | – | – | – | – | – | – | – | – | – | – | – |
| Nc1nc(-c2nn(Cc3ccccc3F)c3ncccc23)ncc1C1CC1 [BAY 41-2272, reference compound] | – | 14 | did not enhance CO binding | attenuated IWP-854 cross-linking to Ms sGC-NT23 in a concentration-dependent manner | poor compound solubility | reduced but not eliminated | failed to diminish IWP-854 labeling | – | – | – | – | – | – | – | – |
| CC1(CCCN(CCOCCOCCOCCOCCC(=O)NCCOCCOCCOCCOCCOCCOCCOCCOCCOCCOCCOC(C)(C)CCNC(=O)CCCCC2SC[C@@H]3NC(=O)N[C@H]23)c2nc(-c3cc(-c4ccon4)n(Cc4ccccc4F)n3)ncc2F)N=N1 (stereo partly shown) [IWP-854] | – | 34 | – | – | – | – | – | Faint labeling was observed on the α1 subunit | cross-links exclusively to the β1 subunit | 12 | stimulate to a similar extent as BAY 41-2272 | 84 | 10 | labeled all four bacterial H-NOX proteins | labeled the isolated β1 subunit |
